# Results: patent publication US11357748B2, “Methods for treating mendelian disorders of the epigenetic machinery” (THE JOHNS HOPKINS UNIVERSITY, priority 2014, dated 2022)
# System: H3K4me3 in the dentate gyrus GCL
# Assay: Immunofluorescence of H3K4me3 in the dentate gyrus GCL after oral AR-42
# Type: in vivo, mouse
# Conditions: 25 mg/kg/day oral, two weeks, from 20 weeks of age; vs untreated; FIG. 24A, 24B
# Description: Kmt2d^+/βGeo mice, also named Mll2Gt^(RRt024) Byg, were acquired from Bay Genomics (University of California). All experimental mice were on a mixed C57BL/6J and 129/SvEv background. Expected Mendelian ratios were observed when heterozygous animals were bred to wild-type. In heterozygous crosses, however, there was uniform embryonic lethality of homozygotes by ED 12, the earliest developmental stage assayed. For treatment with AR-42, mice were orally gavaged daily with drug (Selleck Chemicals, Houston, Tex.) solubilized in vehicle (0.5% methylcellulose, 0.1% Tween-80, water) or with vehicle alone. Drug delivery information was kindly provided by Drs. […] For quantification of DCX positive cells, doses of 0, 5, 10 and 25 mg/kg/day were used. […] Maxillary protrusion was evaluated by ten investigators blinded to genotype and they were asked to rate maxillary protrusion on radiographs as either large (2) or small (1). […]
# Z-stack images of slides were taken at either 10× using Zeiss Axiovert 200 with 510-Meta confocal module (Carl Zeiss, Jena, GER) or 25× using Zeiss AxioExaminer with 710NLO-Meta multiphoton (Carl Zeiss, Jena, GER). From 10× pictures, the GCL was highlighted and fluorescent intensities for both DAPI and H3K4me3 were measured at the midpoint of the entire z-stack (Zen software, Carl Zeiss, Jena, GER) with the value for Kmt2d^+/+ animals set equal to one. […]
smiles,measurement,value
"CC(C)[C@H](C(=O)Nc1ccc(C(=O)NO)cc1)c1ccccc1 [AR-42, (S)—N-hydroxy-4-(3-methyl-2-phenylbutanamido)benzamide]",H3K4me3 in the GCL,increased H3K4 trimethylation
